Tested on: 186277-243-T-J2-PDC multi-cell spheroid viability
Experiment: Anticancer human tumor 186277-243-T-J2-PDC patient-derived colon adenocarcinoma cell line growth inhibition [PI3K]
Conditions: for IC50: curve of first compound; for viability, T/C: stronger effect = lower value
Excerpt: Combinatorial screen of targeted agents with the PI3K inhibitors inavolisib, alpelisib, duvelisib, and copanlisib in multi-cell type tumor spheroids
A high-throughput screen of multi-cell type tumor spheroids was designed to identify active combinations of targeted small molecules and PI3K pathway inhibitors. Complex spheroids include a stromal component modeled by human endothelial cells (HUVEC) and fibroblasts modeled by human mesenchymal stem cells (MSCs). The concentration ranges selected for each drug and investigational agent were based upon clinically achievable concentrations if the clinical Cmax of the agent was known.
Compounds. The drugs and investigational agents: inavolisib (NSC800729), alpelisib (NSC765974), duvelisib (NSC772469), copanlisib (NSC816437), ipatasertib (NSC767898), afuresertib (NSC778305), talazoparib (NSC767125), sapanisertib (NSC764658), selumetinib (NSC741078), tovorafenib (DAY101, NSC766906), vemurafenib (NSC761431), ravoxertinib (NSC781343), sotorasib (NSC818433), MRTX1133 (NSC 836407), abemaciclib (NSC 768073), palbociclib (NSC758247), venetoclax (NSC 766270), SY5609 (NSC837396), enzalutamide (NSC755605), and darolutamide (NSC825331), were obtained from the National Cancer Institute (NCI) Developmental Therapeutics Program Chemical Repository. The FDA-approved anticancer drug set is available from the NCI Developmental Therapeutics Program. […] The stock solutions were prepared in dimethyl sulfoxide (DMSO, Sigma-Aldrich, St. Louis, MO, cat. D2650) at 800-fold the tested concentration and stored at -70 degrees C prior to their use. All drugs and investigational agents were tested over a range starting from a high concentration at or near the clinical Cmax and decreasing in half-log increments. If the clinical Cmax for an agent had not been determined, the highest concentration tested was 10 microM.
Cell Culture. All cells were maintained in an incubator at 37 degrees C and 5% CO2 with 95% humidity. The PDC lines were cultured according to standard operating procedures established by the NCI PDMR (https://pdmr.cancer.gov/sops/default.htm). All PDCs were thawed and cultured in Matrigel-coated flasks prepared with a working solution of 1X Ham's F-12 nutrient mix, without supplementation (Invitrogen, Waltham, MA, cat. 11765054), 100 U/mL penicillin-streptomycin (Invitrogen, cat. 15140122), and 2.5% Matrigel (Corning Inc., Corning, NY, cat. 354248) for the first three passages. The 354836-022-R-J1-PDC, 475296-252-R-J1-PDC, and 997726-040-R-J2-PDC lines were cultured in 6A media, which includes advanced DMEM/F-12 (Thermo Fisher Scientific, cat. 12634028), 10 mM HEPES (Thermo Fisher Scientific, cat. 15630080), 1X GlutaMAX supplement (Thermo Fisher Scientific, cat. 35050061), 0.1 mg/mL primocin (InvivoGen, San Diego, CA, cat. ant-pm-2), 10% defined fetal bovine serum, heat inactivated (HyClone Laboratories Inc., Logan, UT, cat. SH30070.03HI), 50% L-WRN conditioned media (ATCC, cat. CRL-3276), 1.25 mM N-Acetyl-L-cysteine (Sigma-Aldrich, cat. A9165), 10 mM nicotinamide (Sigma-Aldrich, cat. N0636), 1X B-27 supplement (Thermo Fisher Scientific, cat. 17504044), 1X N-2 supplement (Thermo Fisher Scientific, cat. 17502048), and 10 microM Y-27632 dihydrochloride (Tocris Bioscience, Bristol, United Kingdom, cat. 1254). The 624824-186-R-J2-PDC line was cultured in 6C/Colon 1B media, which includes all 6A media components plus 50 ng/mL human EGF recombinant protein (Thermo Fisher Scientific, cat. PHG0311). […]

[1] = second compound 0.00316 µM, first compound 0.0316 µM
[2] = second compound 0.00316 µM, first compound 0.1 µM
[3] = second compound 0.00316 µM, first compound 0.316 µM
[4] = second compound 0.00316 µM, first compound 1 µM
[5] = second compound 0.00316 µM, first compound 3.16 µM
[6] = second compound 0.00316 µM, first compound 10 µM
[7] = second compound 0.01 µM, first compound 0.0316 µM
[8] = second compound 0.01 µM, first compound 0.1 µM
[9] = second compound 0.01 µM, first compound 0.316 µM
[10] = second compound 0.01 µM, first compound 1 µM
[11] = second compound 0.01 µM, first compound 3.16 µM
[12] = second compound 0.01 µM, first compound 10 µM
[13] = second compound 0.0316 µM, first compound 0.0316 µM
[14] = second compound 0.0316 µM, first compound 0.1 µM
[15] = second compound 0.0316 µM, first compound 0.316 µM
[16] = second compound 0.0316 µM, first compound 1 µM
[17] = second compound 0.0316 µM, first compound 3.16 µM
[18] = second compound 0.0316 µM, first compound 10 µM
[19] = second compound 0.1 µM, first compound 0.0316 µM
[20] = second compound 0.1 µM, first compound 0.1 µM
[21] = second compound 0.1 µM, first compound 0.316 µM
[22] = second compound 0.1 µM, first compound 1 µM
[23] = second compound 0.1 µM, first compound 3.16 µM
[24] = second compound 0.1 µM, first compound 10 µM
[25] = second compound 0.316 µM, first compound 0.0316 µM
[26] = second compound 0.316 µM, first compound 0.1 µM
[27] = second compound 0.316 µM, first compound 0.316 µM
[28] = second compound 0.316 µM, first compound 1 µM
[29] = second compound 0.316 µM, first compound 3.16 µM
[30] = second compound 0.316 µM, first compound 10 µM
[31] = second compound 1 µM, first compound 0.0316 µM
[32] = second compound 1 µM, first compound 0.1 µM
[33] = second compound 1 µM, first compound 0.316 µM
[34] = second compound 1 µM, first compound 1 µM
[35] = second compound 1 µM, first compound 3.16 µM
[36] = second compound 1 µM, first compound 10 µM
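Also: spheroids exposed to compounds for seven days before viability reading.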
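For viability, T/C in this document: 100% = DMSO vehicle control viability.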

`CC(C)NCC(C(=O)N1CCN(c2ncnc3c2C(C)CC3O)CC1)c1ccc(Cl)cc1` (stereo unspecified) + CC(Nc1ccc2c(c1)OCCn1cc(N3C(=O)OCC3C(F)F)nc1-2)C(N)=O gave an IC50 (second compound 0.00316 µM) of 1120 nM, an IC50 (second compound 0.01 µM) of 774 nM and an IC50 (second compound 0.0316 µM) of 648 nM. The IC50 (second compound 0.1 µM) was 355 nM, the IC50 (second compound 0.316 µM) was 134 nM and the IC50 (second compound 1 µM) was < 31.6 nM. The viability, T/C [1] was 92.9%, the viability, T/C [2] was 77.1% and the viability, T/C [3] was 64.1%. It also gave a viability, T/C [4] of 52%, a viability, T/C [5] of 39.6% and a viability, T/C [6] of 21.4%. For the same compound, the viability, T/C [7] was 95.3%, the viability, T/C [8] was 87.2% and the viability, T/C [9] was 62.2%. It also gave a viability, T/C [10] of 47%, a viability, T/C [11] of 29.8% and a viability, T/C [12] of 18.9%. The viability, T/C [13] was 104%, the viability, T/C [14] was 97% and the viability, T/C [15] was 71.4%. For the same compound, the viability, T/C [16] was 37.1%, the viability, T/C [17] was 19% and the viability, T/C [18] was 15%. The viability, T/C [19] was 100%, the viability, T/C [20] was 86.2% and the viability, T/C [21] was 51%. For the same compound, the viability, T/C [22] was 27.8%, the viability, T/C [23] was 17.1% and the viability, T/C [24] was 12.9%. The viability, T/C [25] was 75.9%, the viability, T/C [26] was 53.6% and the viability, T/C [27] was 37.6%. For the same compound, the viability, T/C [28] was 24%, the viability, T/C [29] was 11.8% and the viability, T/C [30] was 8.85%. It also gave a viability, T/C [31] of 40.1%, a viability, T/C [32] of 33.3% and a viability, T/C [33] of 24.5%. It also gave a viability, T/C [34] of 19.4%, a viability, T/C [35] of 17.1% and a viability, T/C [36] of 6.4%.

In the case of `CCN1CCN(Cc2ccc(Nc3ncc(F)c(-c4cc(F)c5nc(C)n(C(C)C)c5c4)n3)nc2)CC1` + CC(Nc1ccc2c(c1)OCCn1cc(N3C(=O)OCC3C(F)F)nc1-2)C(N)=O, the IC50 (second compound 0.00316 µM) is reported as > 1000 nM, the IC50 (second compound 0.01 µM) is reported as > 1000 nM and the IC50 (second compound 0.0316 µM) is reported as > 1000 nM. The IC50 (second compound 0.1 µM) was > 1000 nM, the IC50 (second compound 0.316 µM) was 40.3 nM and the IC50 (second compound 1 µM) was < 3.16 nM. It also gave a viability, T/C (second compound 0.00316 µM, first compound 0.00316 µM) of 99.4%, a viability, T/C (second compound 0.00316 µM, first compound 0.01 µM) of 94.3% and a viability, T/C [1] of 102%. For the same compound, the viability, T/C [2] was 143%, the viability, T/C [3] was 165% and the viability, T/C [4] was 128%. It also gave a viability, T/C (second compound 0.01 µM, first compound 0.00316 µM) of 124%, a viability, T/C (second compound 0.01 µM, first compound 0.01 µM) of 85% and a viability, T/C [7] of 106%. The viability, T/C [8] was 132%, the viability, T/C [9] was 142% and the viability, T/C [10] was 133%. The viability, T/C (second compound 0.0316 µM, first compound 0.00316 µM) was 98.9%, the viability, T/C (second compound 0.0316 µM, first compound 0.01 µM) was 93.3% and the viability, T/C [13] was 107%. The viability, T/C [14] was 113%, the viability, T/C [15] was 124% and the viability, T/C [16] was 103%. It also gave a viability, T/C (second compound 0.1 µM, first compound 0.00316 µM) of 105%, a viability, T/C (second compound 0.1 µM, first compound 0.01 µM) of 95.1% and a viability, T/C [19] of 83%. For the same compound, the viability, T/C [20] was 81.8%, the viability, T/C [21] was 75.9% and the viability, T/C [22] was 62.5%. The viability, T/C (second compound 0.316 µM, first compound 0.00316 µM) was 67.6%, the viability, T/C (second compound 0.316 µM, first compound 0.01 µM) was 74.8% and the viability, T/C [25] was 52.5%. The viability, T/C [26] was 42.8%, the viability, T/C [27] was 42.5% and the viability, T/C [28] was 36.2%. The viability, T/C (second compound 1 µM, first compound 0.00316 µM) was 37.3%, the viability, T/C (second compound 1 µM, first compound 0.01 µM) was 37.8% and the viability, T/C [31] was 28.3%. For the same compound, the viability, T/C [32] was 28%, the viability, T/C [33] was 31% and the viability, T/C [34] was 24.5%.

`Cn1ncc(Cl)c1-c1cc(C(=O)NC(CN)Cc2cccc(F)c2)sc1Cl` (stereo unspecified) + CC(Nc1ccc2c(c1)OCCn1cc(N3C(=O)OCC3C(F)F)nc1-2)C(N)=O was tested, and the IC50 (second compound 0.00316 µM) was 608 nM, the IC50 (second compound 0.01 µM) was 422 nM and the IC50 (second compound 0.0316 µM) was 339 nM. The IC50 (second compound 0.1 µM) was 226 nM, the IC50 (second compound 0.316 µM) was 64.6 nM and the IC50 (second compound 1 µM) was < 31.6 nM. For the same compound, the viability, T/C [1] was 82.7%, the viability, T/C [2] was 73.8% and the viability, T/C [3] was 48.5%. It also gave a viability, T/C [4] of 45.4%, a viability, T/C [5] of 39.2% and a viability, T/C [6] of 10.5%. It also gave a viability, T/C [7] of 106%, a viability, T/C [8] of 76.3% and a viability, T/C [9] of 44.6%. For the same compound, the viability, T/C [10] was 44.1%, the viability, T/C [11] was 34.3% and the viability, T/C [12] was 8.87%. The viability, T/C [13] was 103%, the viability, T/C [14] was 88% and the viability, T/C [15] was 45.6%. For the same compound, the viability, T/C [16] was 29%, the viability, T/C [17] was 23% and the viability, T/C [18] was 5.6%. It also gave a viability, T/C [19] of 88.5%, a viability, T/C [20] of 77.6% and a viability, T/C [21] of 36.3%. For the same compound, the viability, T/C [22] was 21.9%, the viability, T/C [23] was 16.6% and the viability, T/C [24] was 4.47%. The viability, T/C [25] was 64.6%, the viability, T/C [26] was 39.7% and the viability, T/C [27] was 27.7%. The viability, T/C [28] was 14.7%, the viability, T/C [29] was 13.5% and the viability, T/C [30] was 3.25%. The viability, T/C [31] was 45.1%, the viability, T/C [32] was 25.5% and the viability, T/C [33] was 12.5%. It also gave a viability, T/C [34] of 11%, a viability, T/C [35] of 10.1% and a viability, T/C [36] of 1.75%.
